Several values for one entry are separate records, joined by “and”; a condition that tells them apart may be missing. Equal entries are not always repeated. Toxic doses and inconclusive results are not listed. No stated cut-off is given here; in the data, active means T/C of 150% or more; inactive means T/C below 125%.
Tested on: L1210 leukemia ip in BDF1 mice, survival T/C
Assay: NCI In Vivo Anticancer Drug Screen. Data for tumor model L1210 Leukemia (intraperitoneal) in B6D2F1 (BDF1) mice
Details: endpoint: mean survival time, higher = longer survival
Outline: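 Survival endpoint. Drug-treated group vs vehicle group, expressed as T divided by C. Tumor passaged by transplantation.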

[1] = dose: 12.5 mg/kg/injection, schedule: Q04DX003 (ip), vehicle: Klucel (hydroxypropylcellulose) (HPC)
[2] = dose: 25.0 mg/kg/injection, schedule: Q04DX003 (ip), vehicle: Klucel (hydroxypropylcellulose) (HPC)
[3] = dose: 50.0 mg/kg/injection, schedule: Q04DX003 (ip), vehicle: Klucel (hydroxypropylcellulose) (HPC)
[4] = dose: 100.0 mg/kg/injection, schedule: Q01DX009 (ip), vehicle: saline with Tween-80
[5] = dose: 100.0 mg/kg/injection, schedule: Q04DX003 (ip), vehicle: saline with Tween-80
[6] = dose: 200.0 mg/kg/injection, schedule: Q01DX009 (ip), vehicle: saline with Tween-80
[7] = dose: 200.0 mg/kg/injection, schedule: Q04DX003 (ip), vehicle: saline with Tween-80
[8] = dose: 400.0 mg/kg/injection, schedule: Q01DX009 (ip), vehicle: saline with Tween-80
[9] = dose: 400.0 mg/kg/injection, schedule: Q04DX003 (ip), vehicle: saline with Tween-80
[10] = dose: 100.0 mg/kg/injection, schedule: Q04DX002 (ip), vehicle: Klucel (hydroxypropylcellulose) (HPC)
[11] = dose: 200.0 mg/kg/injection, schedule: Q04DX002 (ip), vehicle: Klucel (hydroxypropylcellulose) (HPC)
[12] = dose: 400.0 mg/kg/injection, schedule: Q04DX002 (ip), vehicle: Klucel (hydroxypropylcellulose) (HPC)
[13] = dose: 50.0 mg/kg/injection, schedule: Q01DX009 (ip), vehicle: Klucel (hydroxypropylcellulose) (HPC)
[14] = dose: 100.0 mg/kg/injection, schedule: Q01DX009 (ip), vehicle: Klucel (hydroxypropylcellulose) (HPC)
[15] = dose: 100.0 mg/kg/injection, schedule: Q04DX003 (ip), vehicle: Klucel (hydroxypropylcellulose) (HPC)
[16] = dose: 50.0 mg/kg/injection, schedule: Q01DX001 (ip), vehicle: saline
[17] = dose: 100.0 mg/kg/injection, schedule: Q01DX001 (ip), vehicle: saline
[18] = dose: 200.0 mg/kg/injection, schedule: Q01DX001 (ip), vehicle: saline
[19] = dose: 400.0 mg/kg/injection, schedule: Q01DX001 (ip), vehicle: saline
[20] = dose: 100.0 mg/kg/injection, schedule: Q04DX002 (ip), vehicle: saline with Tween-80
[21] = dose: 200.0 mg/kg/injection, schedule: Q04DX002 (ip), vehicle: saline with Tween-80
[22] = dose: 200.0 mg/kg/injection, schedule: Q01DX009 (ip), vehicle: Klucel (hydroxypropylcellulose) (HPC)
[23] = dose: 200.0 mg/kg/injection, schedule: Q04DX003 (ip), vehicle: Klucel (hydroxypropylcellulose) (HPC)
[24] = dose: 400.0 mg/kg/injection, schedule: Q01DX009 (ip), vehicle: Klucel (hydroxypropylcellulose) (HPC)
[25] = dose: 400.0 mg/kg/injection, schedule: Q04DX003 (ip), vehicle: Klucel (hydroxypropylcellulose) (HPC)
[26] = dose: 100.0 mg/kg/injection, schedule: Q01DX001 (ip), vehicle: Klucel (hydroxypropylcellulose) (HPC)
[27] = dose: 200.0 mg/kg/injection, schedule: Q01DX001 (ip), vehicle: Klucel (hydroxypropylcellulose) (HPC)
[28] = dose: 400.0 mg/kg/injection, schedule: Q01DX001 (ip), vehicle: Klucel (hydroxypropylcellulose) (HPC)

Measured: T/C

Cc1cc(C)c(N)c(C)n1
inactive: [1] 95 % of control | [2] 97 % of control | [3] 93 % of control

O=[N+]([O-])c1ccc(S(=O)(=O)Nc2ccccc2-c2ccccc2)cc1
inactive: [4] 96 % of control | [5] 91 % of control | [6] 98 % of control | [7] 91 % of control | [8] 96 % of control | [9] 86 % of control

C1CCN(NC2=NCCO2)CC1
inactive: dose: 100.0 mg/kg/injection, schedule: Q01DX009 (ip), vehicle: saline 95 % of control

CCCCCCCCCCCCOC(=N)N1CCCC1
inactive: dose: 8.8 mg/kg/injection, schedule: Q01DX Z (ip), vehicle: saline 96 % of control | dose: 13.3 mg/kg/injection, schedule: Q01DX Z (ip), vehicle: saline 102 % of control | dose: 20.0 mg/kg/injection, schedule: Q01DX Z (ip), vehicle: saline 100 % of control

COc1ccc(COC(=O)Nc2cc(OC)ccc2OC)cc1
inactive: [10] 101 % of control | [11] 101 % of control | [12] 107 % of control

O=[N+]([O-])c1cccc(Cl)c1O
inactive: dose: 100.0 mg/kg/injection, schedule: Q01DX001 (ip), vehicle: gum acacia 98 % of control | dose: 200.0 mg/kg/injection, schedule: Q01DX001 (ip), vehicle: gum acacia 100 % of control

c1ccc(C2=C(c3ccccc3)SC(c3ccccc3)=C(c3ccccc3)S2)cc1
inactive: dose: 100.0 mg/kg/injection, schedule: Q04DX003 (ip), vehicle: saline 102 % of control | dose: 200.0 mg/kg/injection, schedule: Q04DX003 (ip), vehicle: saline 98 % of control | dose: 400.0 mg/kg/injection, schedule: Q04DX003 (ip), vehicle: saline 104 % of control

NC(N)=Nc1ccc(C(=O)Oc2ccc([N+](=O)[O-])cc2[N+](=O)[O-])cc1
inactive: [2] 96 % of control | [13] 94 % of control | [3] 98 % of control | [14] 94 % of control | [15] 91 % of control

O=C(O)CCC(NC(=O)/C=C/c1ccc([N+](=O)[O-])cc1)C(=O)O (stereo unspecified)
inactive: [10] 107 % of control | [11] 88 % of control | [12] 91 % of control

CC(=O)OC1CCC(C)(C2CCC3(C)C(C(C)CCCC(C)C)CCC3C2CC(=O)O)C(=O)C1 (stereo unspecified)
inactive: [5] 87 % of control | [6] 97 % of control | [7] 91 % of control | [9] 91 % of control

Cn1c(=O)c2c(nc(CCCC3CCCCC3)n2C)n(C)c1=O
inactive: [16] 103 % of control | [17] 97 % of control | [18] 111 % of control | [19] 103 % of control

COC(=O)C#CC(=O)OC
inactive: dose: 3.13 mg/kg/injection, schedule: Q04DX003 (ip), vehicle: Klucel (hydroxypropylcellulose) (HPC) 101 % of control | dose: 6.25 mg/kg/injection, schedule: Q04DX003 (ip), vehicle: Klucel (hydroxypropylcellulose) (HPC) 99 % of control | [1] 111 % of control

CCOC(=O)c1ccc(NP(=O)(Nc2ccc(C(=O)OCC)cc2)c2ccc([N+](=O)[O-])cc2)cc1
inactive: dose: 100.0 mg/kg/injection, schedule: Q04DX003 (ip), vehicle: acetone 87 % of control | dose: 200.0 mg/kg/injection, schedule: Q04DX003 (ip), vehicle: acetone 95 % of control | dose: 400.0 mg/kg/injection, schedule: Q04DX003 (ip), vehicle: acetone 95 % of control

O=C1c2cccc([N+](=O)[O-])c2C(=O)c2c1cccc2[N+](=O)[O-]
inactive: [20] 93 % of control | [21] 104 % of control | dose: 400.0 mg/kg/injection, schedule: Q04DX002 (ip), vehicle: saline with Tween-80 100 % of control

CCN(C(=O)Nc1ccc(OC)cc1)c1ccccc1C
inactive: [15] 99 % of control | [22] 96 % of control | [23] 96 % of control | [24] 102 % of control | [25] 96 % of control

COC(=O)/C(=C\c1ccc(OC)cc1)CC(=O)O
inactive: [26] 96 % of control | [14] 101 % of control and 104 % of control | [10] 98 % of control and 100 % of control | [15] 90 % of control | [27] 93 % of control | [22] 95 % of control and 101 % of control | [11] 95 % of control and 113 % of control | [23] 97 % of control | [28] 104 % of control | [24] 93 % of control and 108 % of control | [12] 102 % of control and 103 % of control | [25] 97 % of control

CC12CCC(O)CC1=CC=C1C2CCC2(C)C(OC(=O)c3ccccc3)CCC12 (stereo unspecified)
inactive: dose: 100.0 mg/kg/injection, schedule: Q01DX001 (ip), vehicle: saline with Tween-80 91 % of control | dose: 200.0 mg/kg/injection, schedule: Q01DX001 (ip), vehicle: saline with Tween-80 93 % of control | dose: 400.0 mg/kg/injection, schedule: Q01DX001 (ip), vehicle: saline with Tween-80 98 % of control

CCOC(=O)c1ccc(N)c(C(O)(C(F)(F)F)C(F)(F)F)c1
inactive: [4] 106 % of control | [6] 95 % of control | [8] 104 % of control

CC1(C)CC(OP(=O)(OC2CC(C)(C)N(O)C(C)(C)C2)c2ccccc2)CC(C)(C)N1O
inactive: dose: 100.0 mg/kg/injection, schedule: Q01DX001 (ip), vehicle: water 91 % of control | dose: 200.0 mg/kg/injection, schedule: Q01DX001 (ip), vehicle: water 106 % of control | dose: 400.0 mg/kg/injection, schedule: Q01DX001 (ip), vehicle: water 89 % of control

COc1ccc2c(n1)Sc1c(Cl)nc(N)nc1N2
inactive: [26] 97 % of control | [27] 97 % of control | [28] 98 % of control

CC(=O)c1coc(=O)cc1O
inactive: dose: 25.0 mg/kg/injection, schedule: Q01DX009 (ip), vehicle: Klucel (hydroxypropylcellulose) (HPC) 102 % of control | [2] 97 % of control | [13] 98 % of control | [3] 97 % of control | [26] 103 % of control | [14] 98 % of control | [15] 100 % of control

O=C1/C(=C/c2ccco2)CC/C1=C\c1ccco1
inactive: [26] 93 % of control | [15] 94 % of control | [27] 101 % of control | [23] 96 % of control | [28] 95 % of control | [25] 96 % of control

CC/C(C)=N\O
inactive: [16] 112 % of control | [17] 101 % of control | [18] 93 % of control | [19] 95 % of control

Cc1cccc(NC(=O)Nc2ccccc2Cl)c1C
inactive: [14] 94 % of control | [15] 95 % of control | [22] 92 % of control | [23] 110 % of control | [24] 96 % of control | [25] 96 % of control

O=C(N/N=C/c1ccccc1)c1cc([N+](=O)[O-])cc([N+](=O)[O-])c1
inactive: [15] 90 % of control | [23] 108 % of control | [25] 101 % of control

COC(=O)CNC(=O)CCNC(=O)OCc1ccccc1
inactive: [5] 98 % of control | [7] 97 % of control | [9] 98 % of control

NN(C(=O)c1ccc([N+](=O)[O-])cc1)c1ccccc1
inactive: dose: 75.0 mg/kg/injection, schedule: Q01DX001 (ip), vehicle: saline 95 % of control | dose: 150.0 mg/kg/injection, schedule: Q01DX001 (ip), vehicle: saline 93 % of control | dose: 300.0 mg/kg/injection, schedule: Q01DX001 (ip), vehicle: saline 90 % of control

COc1ccc(C=NC2C(O)OC(CO)C(O)C2O)cc1 (stereo unspecified)
inactive: [17] 106 % of control | [18] 87 % of control | [19] 93 % of control

CCCCCCCCCC[As]1c2ccccc2Nc2ccccc21
inactive: dose: 50.0 mg/kg/injection, schedule: Q04DX002 (ip), vehicle: saline with Tween-80 92 % of control | [20] 89 % of control | [21] 96 % of control

c1ccc([Si](c2ccccc2)(c2ccccc2)c2ccccc2)cc1
inactive: [5] 90 % of control | [7] 90 % of control | [9] 88 % of control

Reference: PubChem BioAssay AID248 (DTP/NCI, 2004)
